Where two headings read alike, the source gives them in different places.
Columns and labels:
[1] = Megestrol Acetate in plasma samples by GC/MS; assay type: in vivo; details: human; for concentration at 1 h: 1 h post dosing; for concentration at 2 h: 2 h post dosing; for concentration at 4 h: 4 h post dosing; for concentration at 8 h: 8 h post dosing; for concentration at 12 h: 12 h post dosing; for concentration at 24 h: 24 h post dosing; for concentration at 36 h: 36 h post dosing; for concentration at 48 h: 48 h post dosing; for concentration at 0 h: time 0 h (predose)
Description: A total of 90 plasma samples were analyzed for their content of Megestrol Acetate by GC/MS.
In this study megestrol acetate was utilized and medroxyprogesterone acetate was utilized as an internal standard.
For each sample, 1 mL of human plasma was aliquoted and spiked with 25 μL of the internal standard working solution. In the following, the samples were alkalized and extracted with a toluene/diisopropylether mixture. The resulting extracts were stored in a refrigerator until measurement. Just prior to measurement, the sample extracts were evaporated to dryness and reconstituted in toluene. 2 μL of the resulting solution were injected into the GC/MS system. The gas chromatograph was run in the temperature-programmed mode to achieve improved separation. Positive ions chemical ionization (PICI) was used for mass selective detection. Selected mass/charge ratios were m/z 385.2 for megestrol acetate and m/z 387.2 for the internal standard.
The time measured represents the number of hours passed post dosing. Subjects 2, 4, 6, 8 and 10 all received a 6 mg dose of megestrol acetate. Subjects 1, 3, 5, 7 and 9 all received a 1.5 mg dose of megestrol acetate. […] A third measurement was not possible due to insufficient sample. During the study, 3 series of plasma calibration curves were measured (prevalidation run not considered).

menopausal hot flashes = details: cited from earlier work

- concentration at 1 h ([1]; 1.5 mg, Sub 1, 1.5 mg dose): 7.82 ng/mL
- concentration at 2 h ([1]; 1.5 mg, Sub 1, 1.5 mg dose): 2.74 ng/mL
- concentration at 4 h ([1]; 1.5 mg, Sub 1, 1.5 mg dose): 1.01 ng/mL
- concentration at 8 h ([1]; 1.5 mg, Sub 1, 1.5 mg dose): 0.607 ng/mL
- concentration at 12 h ([1]; 1.5 mg, Sub 1, 1.5 mg dose): 0.413 ng/mL
- concentration at 24 h ([1]; 1.5 mg, Sub 1, 1.5 mg dose): 0.399 ng/mL
- concentration at 36 h ([1]; 1.5 mg, Sub 1, 1.5 mg dose): 0.504 ng/mL
- concentration at 48 h ([1]; 1.5 mg, Sub 1, 1.5 mg dose): 0.463 ng/mL
- concentration at 0 h ([1]; 1.5 mg, Sub 1, 1.5 mg dose): 0.492 ng/mL
- concentration at 1 h ([1]; 1.5 mg, Sub 3, 1.5 mg dose): 9.32 ng/mL
- concentration at 2 h ([1]; 1.5 mg, Sub 3, 1.5 mg dose): 5.24 ng/mL
- concentration at 4 h ([1]; 1.5 mg, Sub 3, 1.5 mg dose): 3.04 ng/mL
- concentration at 8 h ([1]; 1.5 mg, Sub 3, 1.5 mg dose): 2.66 ng/mL
- concentration at 12 h ([1]; 1.5 mg, Sub 3, 1.5 mg dose): 1.98 ng/mL
- concentration at 24 h ([1]; 1.5 mg, Sub 3, 1.5 mg dose): 1.8 ng/mL
- concentration at 36 h ([1]; 1.5 mg, Sub 3, 1.5 mg dose): 1.99 ng/mL
- concentration at 48 h ([1]; 1.5 mg, Sub 3, 1.5 mg dose): 1.48 ng/mL
- concentration at 0 h ([1]; 1.5 mg, Sub 3, 1.5 mg dose): 1.98 ng/mL
- concentration at 1 h ([1]; 1.5 mg, Sub 5, 1.5 mg dose): 4.98 ng/mL
- concentration at 2 h ([1]; 1.5 mg, Sub 5, 1.5 mg dose): 2.75 ng/mL
- concentration at 4 h ([1]; 1.5 mg, Sub 5, 1.5 mg dose): 0.959 ng/mL
- concentration at 8 h ([1]; 1.5 mg, Sub 5, 1.5 mg dose): 0.521 ng/mL
- concentration at 12 h ([1]; 1.5 mg, Sub 5, 1.5 mg dose): 0.353 ng/mL
- concentration at 24 h ([1]; 1.5 mg, Sub 5, 1.5 mg dose): 0.344 ng/mL
- concentration at 36 h ([1]; 1.5 mg, Sub 5, 1.5 mg dose): 0.409 ng/mL
- concentration at 48 h ([1]; 1.5 mg, Sub 5, 1.5 mg dose): 0.267 ng/mL
- concentration at 0 h ([1]; 1.5 mg, Sub 5, 1.5 mg dose): 0.426 ng/mL
- concentration at 1 h ([1]; 1.5 mg, Sub 7, 1.5 mg dose): 7.82 ng/mL
- concentration at 2 h ([1]; 1.5 mg, Sub 7, 1.5 mg dose): 4.83 ng/mL
- concentration at 4 h ([1]; 1.5 mg, Sub 7, 1.5 mg dose): 1.99 ng/mL
- concentration at 8 h ([1]; 1.5 mg, Sub 7, 1.5 mg dose): 1.47 ng/mL
- concentration at 12 h ([1]; 1.5 mg, Sub 7, 1.5 mg dose): 1.59 ng/mL
- concentration at 24 h ([1]; 1.5 mg, Sub 7, 1.5 mg dose): 0.771 ng/mL
- concentration at 36 h ([1]; 1.5 mg, Sub 7, 1.5 mg dose): 0.592 ng/mL
- concentration at 48 h ([1]; 1.5 mg, Sub 7, 1.5 mg dose): 0.564 ng/mL
- concentration at 0 h ([1]; 1.5 mg, Sub 7, 1.5 mg dose): 0.851 ng/mL
- concentration at 1 h ([1]; 1.5 mg, Sub 9, 1.5 mg dose): 14.4 ng/mL
- concentration at 2 h ([1]; 1.5 mg, Sub 9, 1.5 mg dose): 9.21 ng/mL
- concentration at 4 h ([1]; 1.5 mg, Sub 9, 1.5 mg dose): 4.02 ng/mL
- concentration at 8 h ([1]; 1.5 mg, Sub 9, 1.5 mg dose): 1.64 ng/mL
- concentration at 12 h ([1]; 1.5 mg, Sub 9, 1.5 mg dose): 1.59 ng/mL
- concentration at 24 h ([1]; 1.5 mg, Sub 9, 1.5 mg dose): 1.09 ng/mL
- concentration at 36 h ([1]; 1.5 mg, Sub 9, 1.5 mg dose): 1.3 ng/mL
- concentration at 48 h ([1]; 1.5 mg, Sub 9, 1.5 mg dose): 1.31 ng/mL
- concentration at 0 h ([1]; 1.5 mg, Sub 9, 1.5 mg dose): 1.4 ng/mL
- concentration at 1 h ([1]; 6 mg, Sub 2, 6 mg dose): 32.9 ng/mL
- concentration at 2 h ([1]; 6 mg, Sub 2, 6 mg dose): 28.1 ng/mL
- concentration at 4 h ([1]; 6 mg, Sub 2, 6 mg dose): 9.89 ng/mL
- concentration at 8 h ([1]; 6 mg, Sub 2, 6 mg dose): 6.98 ng/mL
- concentration at 12 h ([1]; 6 mg, Sub 2, 6 mg dose): 5.84 ng/mL
- concentration at 24 h ([1]; 6 mg, Sub 2, 6 mg dose): 4.4 ng/mL
- concentration at 36 h ([1]; 6 mg, Sub 2, 6 mg dose): 5.04 ng/mL
- concentration at 48 h ([1]; 6 mg, Sub 2, 6 mg dose): 3.58 ng/mL
- concentration at 0 h ([1]; 6 mg, Sub 2, 6 mg dose): 6.48 ng/mL
- concentration at 1 h ([1]; 6 mg, Sub 4, 6 mg dose): 37.4 ng/mL
- concentration at 2 h ([1]; 6 mg, Sub 4, 6 mg dose): 18.7 ng/mL
- concentration at 4 h ([1]; 6 mg, Sub 4, 6 mg dose): 7.22 ng/mL
- concentration at 8 h ([1]; 6 mg, Sub 4, 6 mg dose): 4.7 ng/mL
- concentration at 12 h ([1]; 6 mg, Sub 4, 6 mg dose): 3.05 ng/mL
- concentration at 24 h ([1]; 6 mg, Sub 4, 6 mg dose): 2.17 ng/mL
- concentration at 36 h ([1]; 6 mg, Sub 4, 6 mg dose): 3.58 ng/mL
- concentration at 48 h ([1]; 6 mg, Sub 4, 6 mg dose): 2.9 ng/mL
- concentration at 0 h ([1]; 6 mg, Sub 4, 6 mg dose): 4.44 ng/mL
- concentration at 1 h ([1]; 6 mg, Sub 6, 6 mg dose): 44 ng/mL
- concentration at 2 h ([1]; 6 mg, Sub 6, 6 mg dose): 32.1 ng/mL
- concentration at 4 h ([1]; 6 mg, Sub 6, 6 mg dose): 12.6 ng/mL
- concentration at 8 h ([1]; 6 mg, Sub 6, 6 mg dose): 7.61 ng/mL
- concentration at 12 h ([1]; 6 mg, Sub 6, 6 mg dose): 5.8 ng/mL
- concentration at 24 h ([1]; 6 mg, Sub 6, 6 mg dose): 4.04 ng/mL
- concentration at 36 h ([1]; 6 mg, Sub 6, 6 mg dose): 6.58 ng/mL
- concentration at 48 h ([1]; 6 mg, Sub 6, 6 mg dose): 5.65 ng/mL
- concentration at 0 h ([1]; 6 mg, Sub 6, 6 mg dose): 8.58 ng/mL
- concentration at 1 h ([1]; 6 mg, Sub 8, 6 mg dose): 19.5 ng/mL
- concentration at 2 h ([1]; 6 mg, Sub 8, 6 mg dose): 10.6 ng/mL
- concentration at 4 h ([1]; 6 mg, Sub 8, 6 mg dose): 3.68 ng/mL
- concentration at 8 h ([1]; 6 mg, Sub 8, 6 mg dose): 1.41 ng/mL
- concentration at 12 h ([1]; 6 mg, Sub 8, 6 mg dose): 0.908 ng/mL
- concentration at 24 h ([1]; 6 mg, Sub 8, 6 mg dose): 0.459 ng/mL
- concentration at 36 h ([1]; 6 mg, Sub 8, 6 mg dose): 1.34 ng/mL
- concentration at 48 h ([1]; 6 mg, Sub 8, 6 mg dose): 0.796 ng/mL
- concentration at 0 h ([1]; 6 mg, Sub 8, 6 mg dose): < 0.1 ng/mL
- concentration at 1 h ([1]; 6 mg, Sub 10, 6 mg dose): 23.5 ng/mL
- concentration at 2 h ([1]; 6 mg, Sub 10, 6 mg dose): 17.2 ng/mL
- concentration at 4 h ([1]; 6 mg, Sub 10, 6 mg dose): 6.93 ng/mL
- concentration at 8 h ([1]; 6 mg, Sub 10, 6 mg dose): 4.95 ng/mL
- concentration at 12 h ([1]; 6 mg, Sub 10, 6 mg dose): 2.85 ng/mL
- concentration at 24 h ([1]; 6 mg, Sub 10, 6 mg dose): 1.77 ng/mL
- concentration at 36 h ([1]; 6 mg, Sub 10, 6 mg dose): 2.6 ng/mL
- concentration at 48 h ([1]; 6 mg, Sub 10, 6 mg dose): 1.63 ng/mL
Compound: CC(=O)O[C@]1(C(C)=O)CC[C@H]2[C@@H]3C=C(C)C4=CC(=O)CC[C@]4(C)[C@H]3CC[C@@]21C [megestrol acetate, Pregna-4,6-diene-3,20-dione, 17-(acetyloxy)-6-methyl-]
- decrease of menopausal hot flashes (menopausal hot flashes; daily dose 20 mg): 80%
- decrease of menopausal hot flashes (menopausal hot flashes; daily dose 40 mg): 89%
- decrease of menopausal hot flashes (menopausal hot flashes; daily dose 80 mg): 98%

— patent US20040259851A1, “Methods of administering estrogens and progestins” (priority 2003, published 2004)
